The values below come from US4797479A, “Nucleoside-phospholipid conjugate” (Toyo Jozo Kabushiki Kaisha, priority 1985, dated 1989).

In data set [1] the test system is P-388 leukemic cells. Kind of data set: Antitumor activity against mouse P-388 leukemia (increase in life span, survivors). Type of data set: in vivo, mouse (BDF1 mice). The settings on record: for 35 days survivals No./treated / ILS (increase in life span): P-388; for ILS (increase in life span): Table 1, 35 days, control 7.57-7.79 days; for ILS at 15 mg/kg / ILS at 30 mg/kg: P388.

Data set [2] concerns mice. The experiment in a line: Acute toxicity / mortality in mice. Type of data set: in vivo. The settings on record: for mortality: 150 mg/kg body weight in mice.
Data set [3] concerns Ehrlich ascites carcinoma cells. Kind of data set: Antitumor activity against Ehrlich ascites carcinoma (increase in life span, survivors). Type of data set: in vivo, mouse (ICR mice). The settings on record: for 35 days survivals No./treated / ILS (increase in life span): Ehrlich; for ILS (increase in life span): Table 1, 35 days, control 15.14-15.43 days. As for the experimental part:
Antitumor activities against mouse leukemia P-388 carcinoma and Ehrlich ascites carcinoma are shown in the ensuing examples, according to the following list of specifications:
2. Animals: BDF1 mice or ICR mice, aged 5-6 weeks, male, 5 mice in a group and 7 control mice.
3. Tumor cells: P-388 leukemic cells; 1×10^6 /0.2 ml are inoculated intraperitoneally in BDF1 mice. Ehrlich ascites carcinoma cells; 2×10^6 /0.2 ml are inoculated intraperitoneally in ICR mice.
4. Preparation of samples and administration of drugs: Samples are suspended in Tris-HCl saline solution by sonication. 0.1 ml/10 g body weight is administered. Samples are stored at 4° C. in the dark.
Administration: starting two days after inoculation of tumor, once a day for 2-7 days.
5. Increase in life span (ILS) is calculated by the following equation: [formula] Experimental days: 35 days (partially 30 days) mice living in final days are not calculated in ILS.
Antitumor activity of this compound has been shown hereinbefore. Furthermore, over 60% ILS was observed when Ehrlich ascites carcinoma, 2×10^6 cells/0.2 ml was inoculated intraperitoneally in mice and 2 days thereafter this compound (30 mg/kg) was administered once a day for 7 days.

Data set [4] can be described thus: Antiviral activity (statement, no method given). The settings on record: statement in words; virus and dose not stated.
Setting [5] is: Mus musculus, Table 5, P-388 leukemia treatment, 30 mg (× 5) under head mg/kg.

For `CCCCCCCCCCCCCCCC(=O)OC[C@H](COP(=O)(O)OC[C@H]1O[C@@H](n2cc(F)c(=O)[nH]c2=O)[C@H](O)[C@@H]1O)OC(=O)CCCCCCCCCCCCCCC` [Example 1], in data set [1] (30 mg/kg (× 5)), the “35 days survivals No./treated” value is recorded as 0/5 and the “ILS (increase in life span)” value was 206.3%. In addition, the acute toxicity result in data set [2] (150 mg/kg i.p. in mice) is “No acute toxicity was observed”. For the same molecule, in data set [3] (15 mg/kg (× 5)), the “35 days survivals No./treated” value is recorded as 2/5 and the “ILS (increase in life span)” value is reported as > 88.0%.
`CCCCCCCCCCCCCCCC(=O)OC[C@H](COP(=O)(O)OCC1=C[C@@H](n2cnc3c(N)ncnc32)[C@H](O)[C@@H]1O)OC(=O)CCCCCCCCCCCCCCC` [Example 2]: in data set [1] (50 mg/kg (× 3)), the “35 days survivals No./treated” value is 1/5 and the “ILS (increase in life span)” value was > 159.3%. Moreover, the acute toxicity result in data set [2] (250 mg/kg body weight) is reported as “No acute toxicity was observed”. For the same molecule, in data set [3] (10 mg/kg (× 7)), the “35 days survivals No./treated” value is reported as 2/5 and the “ILS (increase in life span)” value is listed as > 68.7%.
A word on the ILS: it is the gain in survival time of treated over control animals, in per cent. Higher therefore signals a large benefit in survival. `CCCCC/C=C\C/C=C\CCCCCCCC(=O)OC[C@H](COP(=O)(O)OC[C@H]1O[C@@H](n2cc(F)c(=O)[nH]c2=O)[C@H](O)[C@@H]1O)OC(=O)CCCCCCC/C=C\C/C=C\CCCCC` [Example 3] came in with an ILS at 15 mg/kg in data set [1] (mouse P-388 leukemia, 15 kg/mg, 5 times administration) of 101%. Besides, in data set [1] (15 mg/kg (× 5)), the “35 days survivals No./treated” value is given as 0/5 and the “ILS (increase in life span)” value is 100.8%. For the same molecule, the acute toxicity entry in data set [2] (75 mg/kg, mice) is “no acute toxicity”.
`CCCCCCCCCCCCCCCC(=O)OC[C@H](COP(=O)(O)OC[C@H]1O[C@@H](n2cc(F)c(N)nc2=O)[C@@H](O)[C@@H]1O)OC(=O)CCCCCCCCCCCCCCC` [Example 13] returned an ILS at 15 mg/kg in data set [1] (Mus musculus, Table 2, P-388 leukemia, 15 mg/kg (× 5), control 7.57-7.64 days) of 152%. Also, the acute toxicity entry in data set [2] (150 mg/kg body weight, mice) was “No acute toxicity”. For the same molecule, in data set [3] (Ehrlich ascites carcinoma 2×10^6 cells i.p., 30 mg/kg once a day for 7 days from 2 days after inoculation), the increase in lifespan (ILS) entry is reported as “over 60%”.
`CCCCCCCC/C=C\CCCCCCCC(=O)OC[C@H](COP(=O)(O)OC[C@H]1O[C@@H](n2ccc(N)nc2=O)[C@@H](O)[C@@H]1O)OC(=O)CCCCCCC/C=C\CCCCCCCC` [Example 14] showed an ILS at 30 mg/kg in data set [1] (Mus musculus, Table 2, P-388 leukemia, 30 mg/kg (× 5), control 7.57-7.64 days) of 154%. Moreover, the “acute toxicity or mortality” value in data set [2] (150 mg/kg body weight, mice) is on record as “No acute toxicity or mortality”. The same molecule showed an increase in lifespan (ILS) in data set [3] (mice Ehrlich ascites carcinoma, dose not stated) of 65.6%.
With `CCCCCCCCCCCCCCCCCC(=O)OC[C@H](COP(=O)(O)OC[C@H]1O[C@@H](n2cc(F)c(=O)[nH]c2=O)[C@H](O)[C@@H]1O)OC(=O)CCCCCCCCCCCCCCCCC` [Example 16], in data set [1] (setting [5]), the ILS at 30 mg/kg is 206%.
The molecule `CCCCCCCCCCCCCCCCCC(=O)OC[C@H](COP(=O)(O)OCC1=C[C@@H](n2cnc3c(N)ncnc32)[C@H](O)[C@@H]1O)OC(=O)CCCCCCCCCCCCCCCCC` [Example 17] returned an ILS at 30 mg/kg in data set [1] (setting [5]) of 128%.
Still for that read-out and setting: as for `CCCCCCCCCCCCCCCCCC(=O)OC[C@H](COP(=O)(O)OC[C@H]1O[C@@H](n2cc(F)c(N)nc2=O)[C@@H](O)[C@@H]1O)OC(=O)CCCCCCCCCCCCCCCCC` [Example 18], the figure is 194%; as for `CCCCCCCCCCCCCCCCCC(=O)OC[C@H](COP(=O)(O)OC[C@H]1O[C@@H](n2ccc(N)nc2=O)[C@@H](O)[C@@H]1O)OC(=O)CCCCCCCCCCCCCCCCC` [Example 19], 160%.
With `CCCCCCCCCCCCCCCCCC(=O)OC[C@H](COP(=O)(O)OC[C@H]1O[C@@H](n2cc(F)c(=O)[nH]c2=O)C[C@@H]1O)OC(=O)CCCCCCCCCCCCCCCCC` [Example 20], in data set [1] (setting [5]), the increase in life span (ILS) at 30 mg/kg was 36%.
Take `CCCCCCCCCCCCCCCC(=O)OC[C@H](COP(=O)(O)OC[C@H]1O[C@@H](n2cnc3c(N)ncnc32)[C@@H](O)[C@@H]1O)OC(=O)CCCCCCCCCCCCCCC` [dipalmitoyl phosphatidyl arabinosyladenine]: the antiviral activity entry in data set [4] is “have antiviral activity”. Also, the mortality entry in data set [2] is “no mortality was observed”.
For the molecule `CCCCCCCCCCCCCCCC(=O)OC[C@H](COP(=O)(O)OC[C@H]1O[C@@H](n2cc(C)c(=O)[nH]c2=O)[C@@H](O)[C@@H]1O)OC(=O)CCCCCCCCCCCCCCC` [dipalmitoyl phosphatidyl arabinosylthymine], in data set [4], the antiviral activity entry is given as “have antiviral activity”. Also, in data set [2], the mortality entry is “no mortality was observed”.
